Converted amounts (≈) assume the structure as drawn. Where two headings read alike, the source gives them in different places.
Legend:
HSV-2 (strain MS) = experiment: HSV-β-Gal assay: transient expression of beta galactosidase in transfected HeLa cells superinfected with HSV-2; assay type: cell-based
Experimental: (§1) HeLa and Vero cell cultures were maintained in Eagles Minimal Essential Medium (EMEM) which was supplemented with glutamine, penicillin, streptomycin and 10% fetal calf serum (10% EMEM). Stock cultures of HSV-2 (strain MS available from ATCC VR-540) were grown in and harvested from Vero cells. Viral stocks were titered in Vero cells according to established procedures.
Plasmid pON 245^ori- contains the promoter of the HSV-1 thymidine kinase (tk) gene located immediately 5'of the E. coli lac Z gene. In this arrangement, the tk promoter controls transcription from the bacterial gene in transient expression assays. Additionally, an SV40 polyadenylation signal is present at the 3' end of the lac Z gene to allow for the efficient translation of the mRNA in eucaryotic cells. The expression of beta galactosidase in a transient assay using pON 245^ori- is dependent upon superinfection of the transfected cells with HSV. […] For example see U.S. application Ser. No. 07/435,491 filed Sep. 5, 1989, the disclosure of which is incorporated herein by reference thereto.
HeLa cells were seeded into 96 well microtiter plates and allowed to grow to 80% confluency (approximately 35000 cells/well). One half microgram of plasmid pON 245^ori- DNA was introduced into the cells of each well by the […] precipitation technique (Grahman and Van der Eb, 1973). Four to six hours later, the cells were rinsed with hank's Balanced Salt Solution (HBSS), overlaid with 10% EMEM and incubated at 37° C. At 24 hours post-transfection, cells were rinsed, overlaid with 10% EMEM again and re-incubated at 37° C. At 48 hours post-transfection, cells were rinsed and overlaid with either EMEM containing 2% fetal calf serum (2% EMEM), 2% EMEM containing HSV-2 (strain MS, Multiplicity of Infection [moi]=5 pfu/cell) or 2% EMEM containing HSV-2 and the appropriate concentration of Schering compound to be tested. Twenty-four hours later, the cells were harvested and assayed for beta galactosidase activity as described below.
All determinations of beta galactosidase activity were performed in 96 well microtiter plates. The intracellular level of beta galactosidase activity in each well was determined from cell lysates of the monolayer cultures. Aliquots were assayed by incubation in the presence of beta galactosidase substrate, 4-methylumbelliferyl-β-D-galactoside (MUG, 125 ug/ml, Sigma), for 2 hours. The generation of fluorescent product was quantified on a Microfluor microfluorimeter (Dynatech) after addition of 0.1M glycine, pH 10.3 (Spaete and Mocarski, 1985). The inhibitory activity of a compound was plotted versus the concentration and an IC50 value (the concentration of compound required to reduce beta glactosidase expression by 50%) was obtained for each compound tested.

[1] = Compound toxicity assay: inhibition of HeLa cell translation (3H-leucine incorporation); assay type: cell-based; conditions: human, HeLa cells
Experimental: as §1
HeLa cells were treated with inhibitory compound for 24 hours, after which levels of translational activity were assayed.
For assay of translational activity, HeLa cultures were grown to 80% confluency in 96 well microtiter plates, treated with appropriate concentrations of compound in 2% EMEM during an overnight incubation at 37° C., then rinsed with HBSS and overlaid with […] of 2% EMEM containing 8 uCi of tritiated leucine (^3 H-LEU, […], Amersham Corp., Arlington Heights, Ill.). After a 1 hour incubation at 36.5°C., the cells were rinsed twice with phosphate buffered saline (PBS) and lysed in 400 ul/well of 1×PBS, 0.5% sodium dodecyl sulphate (SDS). After a 10 min incubation at 36.5° C., the contents of the well were transferred to a well in a Millititer HA microfiltration plate (Millipore Corp., Bedford, Mass.). The TCA insoluble proteins were precipitated onto the filter disc by a 10 min fixation with 5% TCA, followed by filtration under vacuum and three 10 minute rinses with 95% ethanol. The filters were dried at room temperature, cut from the milltitier plate and transferred to scintillation vials. TCA precipitable counts were assayed in 5 ml of Scintisol (Isolab, Akron, Ohio). The inhibitory activity of a compound was plotted versus the concentration and an IC50 value (that concentration of the compound required to decrease cellular translational activity by 50%) was derived for each compound.

[2] = Human alphaherpesvirus 2, Table II, HeLa cells, HSV-2 strain MS, 24 h, read-out: Anti-HSV activity, HSV-β-GAL assay IC50
[3] = Table II, read-out: Cytotoxicity 3H-LEU assay IC50
[4] = Human alphaherpesvirus 2, Table II^1, HeLa cells, HSV-2 strain MS, 24 h, read-out: Anti-HSV activity HSV-β-Gal assay IC50
[5] = Human alphaherpesvirus 2, HeLa, 24 h, read-out: Anti-HSV activity, HSV-β-GAL assay IC50
[6] = Human alphaherpesvirus 2, HeLa, read-out: HSV: antiHSV activity, HSVβ-Gal Assay, IC50

Molecule | IC50 (HSV-2 (strain MS); [2]) | CC50 at 24 h [1, 3] | further results
CON=Cc1c(OC)c2ccccc2n(Cc2ccccc2)c1=O [Compound 20, 1-Benzyl-3-Methoxyiminomethyl-4-Methoxy-2(1H)-Quinolinone] | 7 µg/mL (≈ 21.7 µM) | – | –
COc1c(SC)c(=O)n(Cc2ccc(O[Si](C)(C)C(C)(C)C)cc2)c2cc(C)c(C)cc12 [Compound 1] | 1.5 µg/mL (≈ 3.19 µM) | 1.8 µg/mL (≈ 3.83 µM) | –
Cc1c(OC(=O)c2cccs2)ccc2c(N)cc(=O)oc12 [Compound 66, 4-Amino-7-(Thiophene-2-carbonyloxy)-8-Methyl-Benzopyran-2-one] | – | – | IC50 (HSV-2 (strain MS); [4]): > 25 µg/mL
CCCCCCn1c(=O)c(C=NOC)c(OC)c2ccccc21 [Compound 3, 1-Hexyl-3-Methoximinomethyl-4-Methoxy-2(1H)-Quinolinone] | 2.5 µg/mL (≈ 7.9 µM) | 12.6 µg/mL (≈ 39.8 µM) | –
CCCCCCn1c(=O)c(C2NCCS2)c(OC)c2cc(C)ccc21 (centres unmarked) [Compound 8, 1-Hexyl-3-(2-thiazolidinyl)-4-methoxy-6-methyl-2(1H)-Quinolinone] | – | 3 µg/mL (≈ 8.32 µM) | IC50 (HSV-2 (strain MS); [5]): < 3 µg/mL
COc1c(SC)c(=O)n(Cc2ccc(O)cc2)c2cc(C)c(C)cc12 [Compound 25] | 10 µg/mL (≈ 28.1 µM) | – | –
CCCCCCn1c(=O)c(C2OCCO2)c(OC)c2cc(C)ccc21 [Compound 23, 1-Hexyl-3-[2-(1,3-dioxolano)]-4-methoxy-6-methyl-2(1H)-Quinolinone] | 9 µg/mL (≈ 26.1 µM) | > 100 µg/mL | –
CCCCCCn1c(=O)c(Cn2ncnn2)c(OC)c2cc(C)ccc21 [Compound 13, 1-hexyl-3-(2-tetrazolylmethyl)-4-methoxy-6-methyl-2(1H)-quinolinone] | 5 µg/mL (≈ 14.1 µM) | 17 µg/mL (≈ 47.8 µM) | –
CCOC(=O)c1c(OC(=O)c2ccc[nH]2)c2ccccc2n(C)c1=O [Compound 101] | – | – | CC50 at 24 h ([1]; Table IV compound, read-out: Cytotoxicity 3H-Leu Assay IC50): 40 µg/mL (≈ 118 µM); IC50 (HSV-2 (strain MS); [6]): 20 µg/mL (≈ 58.8 µM)
CCCCCCn1c(=O)c(C=NO)c(OC)c2cc(C)ccc21 [Compound 4, 1-Hexyl-3-Oximinomethyl-4-Methoxy-6-Methyl-2(1H )-Quinolinone] | – | 100 µg/mL (≈ 316 µM) | IC50 (HSV-2 (strain MS); [5]): 3 µg/mL (≈ 9.48 µM)
Cc1c(OC(=O)c2ccco2)ccc2c(N)cc(=O)oc12 [Compound 65, 4-Amino-7-(2-Furoyloxy)-8-Methyl-Benzopyran-2-one] | – | – | IC50 (HSV-2 (strain MS); [4]): > 25 µg/mL
C=CCOC(=O)c1c(OC)c2cc(C)ccc2n(CCCCCC)c1=O [Compound 104] | – | – | IC50 (HSV-2 (strain MS); [6]): > 25 µg/mL
CCCCCCn1c(=O)c(Cn2cnnn2)c(OC)c2cc(C)ccc21 [Compound 14, 1-Hexyl-3-(1-Tetrazolylmethyl)-4-Methoxy-6-Methyl-2(1H)-Quinolinone] | 5 µg/mL (≈ 14.1 µM) | > 100 µg/mL | –
CCCCCCn1c(=O)c(C(=O)OCC)c(OC)c2cc(C)ccc21 [Compound 19, 1-hexyl-3-ethoxycarbonyl-4-methoxy-6-methyl-2(1H)-quinolinone] | 7 µg/mL (≈ 20.3 µM) | – | –
CCCCCCn1c(=O)c(CBr)c(OC)c2ccccc21 [Compound 15, 1-Hexyl-3-Bromomethyl-4-Methoxy-2(1H)-Quinolinone] | 5 µg/mL (≈ 14.2 µM) | 25 µg/mL (≈ 71 µM) | –
CCCCCCn1c(=O)c(C=NOC)c(OC)c2cc(C)ccc21 [Compound 26, 1-Hexyl-3-Methoximinomethyl-4-Methoxy-6-Methyl-2(1H)-Quinolinone] | 7 µg/mL (≈ 21.2 µM) | 27 µg/mL (≈ 81.7 µM) | –
CCCCCCn1c(=O)c(C(=O)OCC)c(OC(=O)c2cccn2C)c2cc(C)ccc21 [Compound 103] | – | – | IC50 (HSV-2 (strain MS); [6]): 25 µg/mL (≈ 57 µM)

Molecule | IC50 (HSV-2 (strain MS); [2]) | CC50 at 24 h [1, 3] | further results
Cc1c(OC(=O)c2ccncc2)ccc2c(N)cc(=O)oc12 [Compound 67, 4-Amino-7-Isonicotinoxy-8-Methyl-Benzopyran-2-one] | – | – | IC50 (HSV-2 (strain MS); [4]): 14 µg/mL (≈ 47.3 µM)
CCCCCCn1c(=O)c(C2OCCO2)c(OC)c2ccccc21 [Compound 24] | 10 µg/mL (≈ 30.2 µM) | – | –
4-Amino-7-Acetyloxy-8-Methyl-Benzopyran-2-one [Compound 68] | – | – | Anti-HSV activity HSV-β-Gal assay IC50 (HSV-2 (strain MS); Table II^1, HeLa cells, HSV-2 strain MS, 24 h): 30.0 µg/mL
CCCCCCn1c(=O)c(C(=O)O)c(OC)c2cc(C)ccc21 [Compound 105] | – | – | IC50 (HSV-2 (strain MS); [6]): > 25 µg/mL
CCCCCCn1c(=O)c(Cn2cnnn2)c(OC)c2ccccc21 [Compound 18, 1-Hexyl-3-(1-tetrazolymethyl)-4-methoxy-2(1H)-quinolinone] | 6 µg/mL (≈ 17.6 µM) | 18 µg/mL (≈ 52.7 µM) | –
CCOC(=O)c1c(OC)c2ccccc2n(C)c1=O [Compound 107] | – | – | IC50 (HSV-2 (strain MS); [6]): > 25 µg/mL
Cc1c(OC(=O)[C@H](C)NC(=O)OC(C)(C)C)ccc2c(N)cc(=O)oc12 [Compound 71, 4-Amino-7-(BOC-L-Alanyloxy)-8-Methyl-Benzopyran-2-one] | – | – | IC50 (HSV-2 (strain MS); [4]): > 25 µg/mL
CCCCCCn1c(=O)c(Cn2cncn2)c(OC)c2cc(C)ccc21 [Compound 10, 1-Hexyl-3-(1,2,4-Triazol-1-ylmethyl)-4-Methoxy-6-Methyl-2(1H)-Quinolinone] | 4 µg/mL (≈ 11.3 µM) | > 100 µg/mL | –
CCCCCCn1c(=O)c(Cn2cncn2)c(OC)c2ccccc21 [Compound 16, 1-Hexyl-3(1,2,4-Triazol-1-ylmethyl)-4-Methoxy-2(1H)-Quinolinone] | 5 µg/mL (≈ 14.7 µM) | 18 µg/mL (≈ 52.9 µM) | –
CCCCCCn1c(=O)c(Cn2ncnn2)c(OC)c2ccccc21 [Compound 6, 1-hexyl-3-(2-tetrazolylmethyl)-4-methoxy-2(1H)-quinolinone] | – | 7 µg/mL (≈ 20.5 µM) | IC50 (HSV-2 (strain MS); [5]): 3 µg/mL (≈ 8.79 µM)
CCCCCCn1c(=O)c(Cn2ccnc2)c(OC)c2cc(C)ccc21 [Compound 11, 1-Hexyl-3-(1H-imidazol-1-ylmethyl)-4-methoxy-6-methyl-2(1H)-quinolinone] | 4.5 µg/mL (≈ 12.7 µM) | 17 µg/mL (≈ 48.1 µM) | –
COc1c(CCO)c(=O)n(C)c2ccccc12 [Compound 106] | – | – | IC50 (HSV-2 (strain MS); [6]): > 25 µg/mL
CCCCCCn1c(=O)c(C2NCCS2)c(OC)c2ccccc21 (centres unmarked) [Compound 2, 1-Hexyl-3-(2-thiazolidinyl)-4-methoxy-2(1H)-Quinolinone] | – | 32 µg/mL (≈ 92.4 µM) | IC50 (HSV-2 (strain MS); [5]): 2 µg/mL (≈ 5.77 µM)
CCCCCCn1c(=O)c(Cn2cnnc2)c(OC)c2cc(C)ccc21 [Compound 12, 1-hexyl-3-(1,2,4-triazol-4-ylmethyl)-4-methoxy-6-methyl-2(1H)-quinolinone] | 4.5 µg/mL (≈ 12.7 µM) | 32 µg/mL (≈ 90.3 µM) | –
Cc1cc2c(OCCN(C)C)c(SCO)c(=O)n(Cc3ccc(O[Si](C)(C)C(C)(C)C)cc3)c2cc1C [Compound 5] | 3 µg/mL (≈ 5.53 µM) | 15 µg/mL (≈ 27.6 µM) | –
CCCCCCn1c(=O)c(C=NO)c(OC)c2ccccc21 [Compound 17, 1-Hexyl-3-Hydroximinomethyl-4-Methoxy-2(1H)-Quinolinone] | 6 µg/mL (≈ 19.8 µM) | 25 µg/mL (≈ 82.7 µM) | –
CC(=O)Oc1c(Sc2ccccc2)c(=O)n(C)c2ccc(F)cc12 [Compound 102] | – | – | IC50 (HSV-2 (strain MS); [6]): 21 µg/mL (≈ 61.2 µM)

From patent US5942522A, “Antiviral compounds and antihypertensive compounds” (Schering Corporation, priority 1997, dated 1999)
